This data set has as its system rodent carcinogenicity bioassays, tumor incidence. Briefly: CCRIS carcinogenicity studies. The method in brief: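 NCI-built, expert-reviewed records of carcinogenicity and related test outcomes (mutagenicity, tumor promotion/inhibition) compiled from published and report sources, historical span 1985-2011, not updated.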

Calls of active or inactive are those of the source. The rule behind the calls is not given here.

For the molecule `CCC(C)OC(=O)N1CCCCC1CCO` (configuration not stated), the carcinogen call is “inactive; negative” (Species: MOUSE, Strain/Sex: CD-1/FEMALE, Route: DERMAL, Dose: 0, 50, 100, 200 MG/KG BW FOR 78 WK (STUDY DURATION: 78 WK), Dose: 0, 50, 100, 200 MG/KG BW FOR 78 WK (STUDY DURATION: 78 WK)); “inactive; negative” (Species: MOUSE, Strain/Sex: CD-1/MALE, Route: DERMAL, Dose: 0, 50, 100, 200 MG/KG BW FOR 78 WK (STUDY DURATION: 78 WK), Dose: 0, 50, 100, 200 MG/KG BW FOR 78 WK (STUDY DURATION: 78 WK)); “inactive; negative” (Species: RAT, Strain/Sex: SPRAGUE-DAWLEY/FEMALE, Route: DERMAL, Dose: 0, 50, 100, 200 MG/KG BW FOR 104 WK (STUDY DURATION: 104 WK), Dose: 0, 50, 100, 200 MG/KG BW FOR 104 WK (STUDY DURATION: 104 WK)); “inactive; negative” (Species: RAT, Strain/Sex: SPRAGUE-DAWLEY/MALE, Route: DERMAL, Dose: 0, 50, 100, 200 MG/KG BW FOR 104 WK (STUDY DURATION: 104 WK), Dose: 0, 50, 100, 200 MG/KG BW FOR 104 WK (STUDY DURATION: 104 WK)).
Consider `ClCC(Cl)(Cl)Cl`, for which the carcinogen call is “active; positive” (Species: MOUSE, Strain/Sex: B6C3F1/FEMALE, Route: GAVAGE, Dose: 0, 250, 500 MG/KG IN CORN OIL, Dose: 0, 250, 500 MG/KG IN CORN OIL, Tumor Site: Type of Lesion: LIVER: HEPATOCELLULAR ADENOMA OR CARCINOMA); “active; positive” (Species: MOUSE, Strain/Sex: B6C3F1/MALE, Route: GAVAGE, Dose: 0, 250, 500 MG/KG IN CORN OIL, Dose: 0, 250, 500 MG/KG IN CORN OIL, Tumor Site: Type of Lesion: LIVER: HEPATOCELLULAR ADENOMA); “inactive; negative” (Species: RAT, Strain/Sex: F344/FEMALE, Route: GAVAGE, Dose: 0, 125, 250 MG/KG IN CORN OIL 5 D/WK FOR 103 WK (STUDY DURATION: 103 WK), Dose: 0, 125, 250 MG/KG IN CORN OIL 5 D/WK FOR 103 WK (STUDY DURATION: 103 WK)); “equivocal” (Species: RAT, Strain/Sex: F344/MALE, Route: GAVAGE, Dose: 0, 125, 250 MG/KG IN CORN OIL 5 D/WK FOR 103 WK (STUDY DURATION: 103 WK), Dose: 0, 125, 250 MG/KG IN CORN OIL 5 D/WK FOR 103 WK (STUDY DURATION: 103 WK), Tumor Site: Type of Lesion: LIVER: NEOPLASTIC NODULE, HEPATOCELLULAR CARCINOMA).
Take `CN(C)C=O`: the carcinogen call runs as follows: (Species: MOUSE, Strain/Sex: CRL:CD-1(ICR)BR/FEMALE, Route: INHALATION, Dose: 0, 25, 100, 400 PPM 6 HR/D 5 D/WK FOR 18 MO (STUDY DURATION: 18 MO), Dose: 0, 25, 100, 400 PPM 6 HR/D 5 D/WK FOR 18 MO (STUDY DURATION: 18 MO)) “inactive; negative”; (Species: MOUSE, Strain/Sex: CRL:CD-1(ICR)BR/MALE, Route: INHALATION, Dose: 0, 25, 100, 400 PPM 6 HR/D 5 D/WK FOR 18 MO (STUDY DURATION: 18 MO), Dose: 0, 25, 100, 400 PPM 6 HR/D 5 D/WK FOR 18 MO (STUDY DURATION: 18 MO)) “inactive; negative”; (Species: RAT, Strain/Sex: CRL:CD BR/FEMALE, Route: INHALATION, Dose: 0, 25, 100, 400 PPM 6 HR/D 5 D/WK FOR 24 MO (STUDY DURATION: 24 MO), Dose: 0, 25, 100, 400 PPM 6 HR/D 5 D/WK FOR 24 MO (STUDY DURATION: 24 MO)) “inactive; negative”; (Species: RAT, Strain/Sex: CRL:CD BR/MALE, Route: INHALATION, Dose: 0, 25, 100, 400 PPM 6 HR/D 5 D/WK FOR 24 MO (STUDY DURATION: 24 MO), Dose: 0, 25, 100, 400 PPM 6 HR/D 5 D/WK FOR 24 MO (STUDY DURATION: 24 MO)) “inactive; negative”.
Take `C[CH2][Pb]([CH2]C)([CH2]C)[CH2]C`: the carcinogen call is “active; positive” (Species: MOUSE, Strain/Sex: ICR/FEMALE, Route: SUBCUTANEOUS, Dose: 0, 0.1 MG IN TRICAPRYLIN AT DAYS 1 AND 7 OF AGE AND 0, 0.2 MG AT DAYS 14 AND 21 OF AGE FOR A TOTAL DOSE OF 0, 0.6 MG (ST, Dose: 0, 0.1 MG IN TRICAPRYLIN AT DAYS 1 AND 7 OF AGE AND 0, 0.2 MG AT DAYS 14 AND 21 OF AGE FOR A TOTAL DOSE OF 0, 0.6 MG (ST, Tumor Site: Type of Lesion: HEMATOPOIETIC SYSTEM: LYMPHOMA) and “inactive; negative” (Species: MOUSE, Strain/Sex: ICR/MALE, Route: SUBCUTANEOUS, Dose: 0, 0.1 MG IN TRICAPRYLIN ON DAYS 1 AND 7 OF AGE AND 0, 0.2 MG ON DAYS 14 AND 21 OF AGE FOR A TOTAL DOSE OF 0, 0.6 MG (ST, Dose: 0, 0.1 MG IN TRICAPRYLIN ON DAYS 1 AND 7 OF AGE AND 0, 0.2 MG ON DAYS 14 AND 21 OF AGE FOR A TOTAL DOSE OF 0, 0.6 MG (ST).
As for `Cn1c(=O)c2[nH]cnc2n(C)c1=O`, the carcinogen call reads like this: (Species: MOUSE, Strain/Sex: B6C3F1/FEMALE, Route: GAVAGE, Dose: 0, 7.5, 25, 75 MG/KG BW IN CORN OIL 5 D/WK FOR 726 D (STUDY DURATION: 2 YR), Dose: 0, 7.5, 25, 75 MG/KG BW IN CORN OIL 5 D/WK FOR 726 D (STUDY DURATION: 2 YR)) “inactive; negative”; (Species: MOUSE, Strain/Sex: B6C3F1/MALE, Route: GAVAGE, Dose: 0, 15, 50, 150 MG/KG BW IN CORN OIL 5 D/WK FOR 726 D (STUDY DURATION: 2 YR), Dose: 0, 15, 50, 150 MG/KG BW IN CORN OIL 5 D/WK FOR 726 D (STUDY DURATION: 2 YR)) “inactive; negative”; (Species: RAT, Strain/Sex: F344/FEMALE, Route: GAVAGE, Dose: 0, 7.5, 25, 75 MG/KG BW IN CORN OIL 5 D/WK FOR 729 D (STUDY DURATION: 2 YR), Dose: 0, 7.5, 25, 75 MG/KG BW IN CORN OIL 5 D/WK FOR 729 D (STUDY DURATION: 2 YR)) “inactive; negative”; (Species: RAT, Strain/Sex: F344/MALE, Route: GAVAGE, Dose: 0, 7.5, 25, 75 MG/KG BW IN CORN OIL 5 D/WK FOR 729 D (STUDY DURATION: 2 YR), Dose: 0, 7.5, 25, 75 MG/KG BW IN CORN OIL 5 D/WK FOR 729 D (STUDY DURATION: 2 YR)) “inactive; negative”.
For `O=C1OC2(c3ccccc31)c1cc(I)c(O)c(I)c1Oc1c2cc(I)c(O)c1I`, the carcinogen call (Species: MOUSE, Strain/Sex: CD-1/FEMALE, Route: ORAL, Dose: 0, 0.3, 1.0, 3.0% IN DIET FOR 24 MO (STUDY DURATION: 24 MO), Dose: 0, 0.3, 1.0, 3.0% IN DIET FOR 24 MO (STUDY DURATION: 24 MO)) was “inactive; negative”; the carcinogen call (Species: MOUSE, Strain/Sex: CD-1/MALE, Route: ORAL, Dose: 0, 0.3, 1.0, 3.0% IN DIET FOR 24 MO (STUDY DURATION: 24 MO), Dose: 0, 0.3, 1.0, 3.0% IN DIET FOR 24 MO (STUDY DURATION: 24 MO)) is “inactive; negative”; the carcinogen call (Species: MOUSE, Strain/Sex: ICR/FEMALE, Route: DERMAL, Dose: 0, 1 MG IN 0.1 ML DISTILLED WATER 2/WK FOR A MEAN TOTAL DOSE OF 133 MG (STUDY DURATION: 18 MO)) is “inactive; negative”; the carcinogen call (Species: MOUSE, Strain/Sex: ICR/MALE, Route: DERMAL, Dose: 0, 1 MG IN 0.1 ML DISTILLED WATER 2/WK FOR A MEAN TOTAL DOSE OF 133 MG (STUDY DURATION: 18 MO)) was “inactive; negative”; the carcinogen call (Species: RAT, Strain/Sex: CD-1/FEMALE, Route: ORAL, Dose: 0, 0.1, 0.5, 1% IN DIET FOR 30 MO BEGINNING IN UTERO WITH PARENTS GIVEN THE SAME DIETARY DOSES (STUDY DURATION: 30 MO), Dose: 0, 0.1, 0.5, 1% IN DIET FOR 30 MO BEGINNING IN UTERO WITH PARENTS GIVEN THE SAME DIETARY DOSES (STUDY DURATION: 30 MO)) is “inactive; negative”; the carcinogen call (Species: RAT, Strain/Sex: CD-1/FEMALE, Route: ORAL, Dose: 0, 4% IN DIET FOR 30 MO BEGINNING IN UTERO WITH PARENTS GIVEN THE SAME DIETARY DOSES (STUDY DURATION: 30 MO)) is “inactive; negative”. In addition, the carcinogen call by setting is: (Species: RAT, Strain/Sex: CD-1/MALE, Route: ORAL, Dose: 0, 0.1, 0.5, 1% IN DIET FOR 30 MO BEGINNING IN UTERO WITH PARENTS GIVEN THE SAME DIETARY DOSES (STUDY DURATION: 30 MO), Dose: 0, 0.1, 0.5, 1% IN DIET FOR 30 MO BEGINNING IN UTERO WITH PARENTS GIVEN THE SAME DIETARY DOSES (STUDY DURATION: 30 MO)) “inactive; negative”; (Species: RAT, Strain/Sex: CD-1/MALE, Route: ORAL, Dose: 0, 4% IN DIET FOR 30 MO BEGINNING IN UTERO WITH PARENTS GIVEN THE SAME DIETARY DOSES (STUDY DURATION: 30 MO), Tumor Site: Type of Lesion: THYROID: ADENOMA) “active; positive”.
On to `CCC(=O)OCCCCCC(C)C`, for which, for the setting “Species: MOUSE, Strain/Sex: C3H/MALE, Route: DERMAL, Dose: 25 µL (19% W/V IN 70:30 ACETONE/HEPTANE APPLIED TO BACK 3 D/WK FOR LIFE (STUDY DURATION: LIFE)”, the carcinogen call is “inactive; negative”.
